Test results published in PubChem BioAssay AID328 (DTP/NCI, 2004).
“And” between values parts separate entries of the source, which are not always exact repeats. Equal values may be shown once. Toxic doses and inconclusive results are not listed.

Tested on: BDF1 mice, P388 leukemia ip, median survival T/C
Test: NCI In Vivo Anticancer Drug Screen. Data for tumor model P388 Leukemia (intraperitoneal) in B6D2F1 (BDF1) mice
Settings: endpoint: median survival time, higher = longer survival
Procedure, shortened: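 In tumour-bearing mice, survival after compound treatment is set against the vehicle group and given as a quotient.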

[1] = dose: 50.0 mg/kg/injection, schedule: Q04DX003 (ip), vehicle: Klucel (hydroxypropylcellulose) (HPC)
[2] = dose: 100.0 mg/kg/injection, schedule: Q01DX001 (ip), vehicle: Klucel (hydroxypropylcellulose) (HPC)
[3] = dose: 100.0 mg/kg/injection, schedule: Q04DX003 (ip), vehicle: Klucel (hydroxypropylcellulose) (HPC)
[4] = dose: 200.0 mg/kg/injection, schedule: Q01DX001 (ip), vehicle: Klucel (hydroxypropylcellulose) (HPC)
[5] = dose: 200.0 mg/kg/injection, schedule: Q04DX003 (ip), vehicle: Klucel (hydroxypropylcellulose) (HPC)
[6] = dose: 400.0 mg/kg/injection, schedule: Q01DX001 (ip), vehicle: Klucel (hydroxypropylcellulose) (HPC)
[7] = dose: 100.0 mg/kg/injection, schedule: Q04DX003 (ip), vehicle: saline with Tween-80
[8] = dose: 300.0 mg/kg/injection, schedule: Q04DX003 (ip), vehicle: saline with Tween-80
[9] = dose: 400.0 mg/kg/injection, schedule: Q04DX003 (ip), vehicle: saline with Tween-80
[10] = dose: 50.0 mg/kg/injection, schedule: Q01DX009 (ip), vehicle: saline with Tween-80
[11] = dose: 100.0 mg/kg/injection, schedule: Q01DX009 (ip), vehicle: saline with Tween-80
[12] = dose: 200.0 mg/kg/injection, schedule: Q01DX009 (ip), vehicle: saline with Tween-80
[13] = dose: 50.0 mg/kg/injection, schedule: Q04DX003 (ip), vehicle: saline
[14] = dose: 100.0 mg/kg/injection, schedule: Q04DX003 (ip), vehicle: saline
[15] = dose: 200.0 mg/kg/injection, schedule: Q04DX003 (ip), vehicle: saline
[16] = dose: 25.0 mg/kg/injection, schedule: Q01DX009 (ip), vehicle: saline
[17] = dose: 400.0 mg/kg/injection, schedule: Q01DX009 (ip), vehicle: saline with Tween-80
[18] = dose: 100.0 mg/kg/injection, schedule: Q01DX001 (ip), vehicle: saline with Tween-80
[19] = dose: 200.0 mg/kg/injection, schedule: Q01DX001 (ip), vehicle: saline with Tween-80
[20] = dose: 400.0 mg/kg/injection, schedule: Q01DX001 (ip), vehicle: saline with Tween-80

S=C(NNC(=S)Nc1ccc(Cl)cc1)NNc1ccccc1
T/C (dose: 25.0 mg/kg/injection, schedule: Q01DX009 (ip), vehicle: other): 100 % of control | T/C (dose: 50.0 mg/kg/injection, schedule: Q01DX009 (ip), vehicle: other): 100 % of control | T/C [1]: 104 % of control | T/C [2]: 100 % of control | T/C (dose: 100.0 mg/kg/injection, schedule: Q01DX009 (ip), vehicle: other): 115 % of control | T/C [3]: 100 % of control | T/C (dose: 150.0 mg/kg/injection, schedule: Q01DX009 (ip), vehicle: Klucel (hydroxypropylcellulose) (HPC)): 110 % of control | T/C [4]: 90 % of control | T/C [5]: 100 % of control | T/C (dose: 220.0 mg/kg/injection, schedule: Q01DX009 (ip), vehicle: Klucel (hydroxypropylcellulose) (HPC)): 110 % of control | T/C (dose: 225.0 mg/kg/injection, schedule: Q01DX009 (ip), vehicle: Klucel (hydroxypropylcellulose) (HPC)): 110 % of control | T/C (dose: 335.0 mg/kg/injection, schedule: Q01DX009 (ip), vehicle: Klucel (hydroxypropylcellulose) (HPC)): 110 % of control | T/C [6]: 104 % of control

CN(Cc1ccco1)NC(=O)C(=O)NCc1ccco1
T/C (dose: 12.5 mg/kg/injection, schedule: Q01DX005 (ip), vehicle: saline with Tween-80): 95 % of control | T/C (dose: 25.0 mg/kg/injection, schedule: Q01DX005 (ip), vehicle: saline with Tween-80): 95 % of control | T/C (dose: 50.0 mg/kg/injection, schedule: Q01DX005 (ip), vehicle: saline with Tween-80): 88 % of control

Cc1ccccc1N1C(=O)CSC1=S
T/C [7]: 100 % of control | T/C (dose: 132.0 mg/kg/injection, schedule: Q04DX003 (ip), vehicle: saline with Tween-80): 90 % of control | T/C (dose: 200.0 mg/kg/injection, schedule: Q04DX003 (ip), vehicle: saline with Tween-80): 100 % of control | T/C [8]: 100 % of control | T/C [9]: 90 % of control

COc1ccc(/C=N/Nc2nc3ccc4ccccc4c3s2)cc1
T/C [10]: 90 % of control | T/C [11]: 101 % of control | T/C [12]: 115 % of control

COC(=O)CNC(=O)C(CSCc1ccccc1)NC(=O)OCc1ccccc1 (stereo not drawn)
T/C [3]: 95 % of control | T/C [5]: 100 % of control | T/C (dose: 400.0 mg/kg/injection, schedule: Q04DX003 (ip), vehicle: Klucel (hydroxypropylcellulose) (HPC)): 90 % of control

O=CC(=O)c1ccc(O)cc1
T/C (dose: 50.0 mg/kg/injection, schedule: Q04DX003 (ip), vehicle: saline sonified): 109 % of control | T/C [8]: 86 % of control

Cc1nc2nc(N)nc(N)c2nc1Sc1ccc(Cl)cc1
T/C [7]: 91 % of control | T/C [9]: 88 % of control

C/C(CC(=O)O)=C(\C)C(=O)O
T/C (dose: 25.0 mg/kg/injection, schedule: Q01DX009 (ip), vehicle: water): 100 % of control | T/C (dose: 50.0 mg/kg/injection, schedule: Q01DX009 (ip), vehicle: water): 100 % of control | T/C (dose: 100.0 mg/kg/injection, schedule: Q01DX001 (ip), vehicle: saline): 96 % of control | T/C (dose: 100.0 mg/kg/injection, schedule: Q01DX009 (ip), vehicle: water): 97 % of control and 103 % of control | T/C (dose: 100.0 mg/kg/injection, schedule: Q04DX003 (ip), vehicle: water): 108 % of control | T/C (dose: 200.0 mg/kg/injection, schedule: Q01DX001 (ip), vehicle: saline): 100 % of control | T/C (dose: 200.0 mg/kg/injection, schedule: Q01DX009 (ip), vehicle: water): 112 % of control | T/C (dose: 400.0 mg/kg/injection, schedule: Q01DX001 (ip), vehicle: saline): 100 % of control | T/C (dose: 400.0 mg/kg/injection, schedule: Q01DX009 (ip), vehicle: water): 105 % of control

COC1C(OC(=O)/C=C/C=C/C=C/C=C\C(=O)O)CCC2(CO2)C1C1(C)OC1CC=C(C)C (stereo not drawn)
T/C [13]: 110 % of control | T/C [14]: 105 % of control | T/C [15]: 110 % of control

CN(C)C(=S)SSC(=S)N(C)C
T/C (dose: 25.0 mg/kg/injection, schedule: Q04DX003 (ip), vehicle: Klucel (hydroxypropylcellulose) (HPC)): 109 % of control | T/C [1]: 118 % of control | T/C [2]: 100 % of control | T/C [3]: 113 % of control | T/C [4]: 109 % of control | T/C [6]: 113 % of control

[N-]=[N+]=NCc1cnccn1
T/C (dose: 12.5 mg/kg/injection, schedule: Q01DX009 (ip), vehicle: saline): 100 % of control | T/C [16]: 113 % of control

CO[C@@H](C=O)O[C@@H](C=O)CO
T/C (dose: 6.25 mg/kg/injection, schedule: Q01DX009 (ip), vehicle: saline): 120 % of control | T/C [16]: 150 % of control | T/C [13]: 150 % of control | T/C (dose: 89.0 mg/kg/injection, schedule: Q04DX003 (ip), vehicle: saline): 170 % of control | T/C [14]: 160 % of control | T/C (dose: 133.0 mg/kg/injection, schedule: Q04DX003 (ip), vehicle: saline): 160 % of control | T/C [15]: 175 % of control and 180 % of control

ClC1=C(Cl)C2(Cl)C3(Cl)C(Cl)=C(Cl)C(Cl)(C3c3ccccc3)C2(Cl)C1c1ccccc1 (stereo not drawn)
T/C [11]: 95 % of control | T/C (dose: 100.0 mg/kg/injection, schedule: Q04DX003 (ip), vehicle: saline sonified): 100 % of control | T/C [12]: 95 % of control | T/C (dose: 200.0 mg/kg/injection, schedule: Q04DX003 (ip), vehicle: saline sonified): 104 % of control | T/C [17]: 95 % of control | T/C (dose: 400.0 mg/kg/injection, schedule: Q04DX003 (ip), vehicle: saline sonified): 90 % of control

NC(=O)Oc1ccccc1
T/C [11]: 104 % of control | T/C [12]: 109 % of control | T/C [17]: 86 % of control

O=C(Nc1ccc(F)cc1)Nc1cccc2ccccc12
T/C [18]: 90 % of control | T/C [19]: 90 % of control | T/C [20]: 90 % of control

Clc1ccc(CNc2ncnc3[nH]ncc23)cc1
T/C (dose: 3.13 mg/kg/injection, schedule: Q01DX009 (ip), vehicle: saline with Tween-80): 91 % of control | T/C (dose: 6.25 mg/kg/injection, schedule: Q01DX009 (ip), vehicle: saline with Tween-80): 87 % of control | T/C (dose: 12.5 mg/kg/injection, schedule: Q01DX009 (ip), vehicle: saline with Tween-80): 89 % of control | T/C (dose: 25.0 mg/kg/injection, schedule: Q01DX009 (ip), vehicle: saline with Tween-80): 105 % of control

NC(=S)N/N=C\c1nnc(N)s1
T/C [10]: 90 % of control

O=C(O)C1(O)CC(O)C(O)C(O)C1 (stereo not drawn)
T/C (dose: 100.0 mg/kg/injection, schedule: Q04DX002 (ip), vehicle: saline with Tween-80): 96 % of control | T/C (dose: 200.0 mg/kg/injection, schedule: Q04DX002 (ip), vehicle: saline with Tween-80): 94 % of control | T/C (dose: 400.0 mg/kg/injection, schedule: Q04DX002 (ip), vehicle: saline with Tween-80): 86 % of control

CC(C(=O)O)=C(c1ccccc1)c1ccccc1
T/C [18]: 100 % of control | T/C [19]: 100 % of control | T/C [20]: 100 % of control

O=C(Nc1ccc(C2=NCCN2)cc1)Nc1cccc(NC(=O)Nc2ccc(C3=NCCN3)cc2)c1
T/C (dose: 60.0 mg/kg/injection, schedule: Q01DX010 (ip), vehicle: saline): 185 % of control and 190 % of control | T/C (dose: 120.0 mg/kg/injection, schedule: Q01DX010 (ip), vehicle: saline): 185 % of control | T/C (dose: 240.0 mg/kg/injection, schedule: Q01DX010 (ip), vehicle: saline): 245 % of control and 220 % of control | T/C (dose: 480.0 mg/kg/injection, schedule: Q01DX010 (ip), vehicle: saline): 120 % of control

CCCCCCCCCCCCS(=O)(=O)O (tested in a mixture with another compound)
T/C [3]: 95 % of control | T/C [5]: 90 % of control

CCOC(=O)C1C(C)OC(=O)C(Br)C1C (stereo not drawn)
T/C [10]: 97 % of control | T/C [11]: 98 % of control | T/C [12]: 104 % of control

CN(Cc1cnc2nc(N)nc(N)c2n1)c1ccc(C(=O)NC(CCC(=O)O)C(=O)O)cc1Br (stereo not drawn)
T/C (dose: 0.35 mg/kg/injection, schedule: Q01DX009 (ip), vehicle: saline): 231 % of control | T/C (dose: 0.7 mg/kg/injection, schedule: Q01DX009 (ip), vehicle: saline): 259 % of control | T/C (dose: 13.2 mg/kg/injection, schedule: Q04DX003 (ip), vehicle: saline with Tween-80): 250 % of control
